This passage reports inhibition, pest or weed control and Activity results from patent publication US9326513B2, “Fungicidal compositions” (Syngenta Participations AG, priority 2011, dated 2016).

Experiment [1] relates to Gaeumannomvces graminis. The experiment is described as follows: Gaeumannomvces graminis (take-all of cereals), PDB microtiter plate, visual after 48 hrs. In kind it is cell-based. The following applies: solo; for inhibition at 0.015625 ppm: rate 0.015625 ppm. The source says:
In the following Tables ‘Activity (%)’ means the assessed experimental activity (% disease control in this test when compared to untreated control leaf disks under the same conditions, which show extensive disease development) and “P” is the expected value calculated (expected) activity according to the COLBY formula (see above). The column headed ‘S?’ indicates whether or not synergy was observed, with ‘y’ meaning that synergy was observed. Gaeumannomvces graminis (Take-all of Cereals) Mycelial fragments of the fungus from cryogenic storage were directly mixed into nutrient broth (PDB potato dextrose broth). After placing a (DMSO) solution of the test compounds into a microtiter plate (96-well format) the nutrient broth containing the fungal spores was added.

Experiment [2] deals with Pyrenophora teres. The experiment is described as follows: Pyrenophora teres / barley / leaf disc preventative (net blotch). To be noted: foliar, compared to untreated control leaf disks, read-out: disease control. In kind it is in vivo. The source says:
Pyrenophora teres/Barley/Leaf Disc Preventative (Net Blotch) Barley leaf segments cv. Hasso were placed on agar in a multiwell plate (24-well format) and sprayed with the formulated test compound diluted in water. The leaf segments were inoculated with a spore suspension of the fungus 2 days after application.

Experiment [3] deals with Sphaerotheca fuliginea. Nature of the experiment: Sphaerotheca fuliginea (powdery mildew) on cucumber, preventive treatment. It is filed as in vivo. To be noted: solo, 2 days preventive, 10 days after application. The source says:
In the following Tables 'Activity (%)' means the assessed experimental activity (% disease control in this test when compared to untreated control leaf disks under the same conditions, which show extensive disease development) and “P” is the expected value calculated (expected) activity according to the COLBY formula (see above). The column headed 'S?' indicates whether or not synergy was observed, with 'y' meaning that synergy was observed. Sphaerotheca fuliqinea (Powdery Mildew) on Cucumber, Preventive Treatment […] Cucumber plants with unfolded cotyledons were sprayed with a roomsprayer and 40 ml/4 plants spray volume with the test compounds, either solo or in […] shown in the table below. 2 days after application the plants were infested with spores of Sphaerotheca fuliginea.

Experiment [4] has as its system Pythium ultimum. The experiment is described as follows: Pythium ultimum (damping off), PDB microtiter plate, visual after 48 hrs. It is filed as cell-based. To be noted: Globisporangium ultimum, solo.

As for `CCN(C)/C=N/c1cc(Br)c(OC2Cc3ccccc3C2)nc1C` [Q.062], in experiment [1] (rate 0.00390625 ppm), the inhibition (as a rule, the drop in the measured response relative to a control, in per cent) at 0.00390625 ppm came out at 0%. In experiment [1] (rate 0.0078125 ppm), the inhibition at 0.0078125 ppm was 0%. Besides, the inhibition at 0.015625 ppm in experiment [1] is 0%. For the same molecule, the pest or weed control at 200 ppm in experiment [2] was ≥ 50%. Moreover, the Activity in experiment [3] (rate 0.2 ppm) stood at 0%; in experiment [3] (rate 0.6 ppm), 0%; in experiment [3] (rate 2 ppm) it was 7%.
With `CCN(C)/C=N/c1cc(Br)c(OC(C)c2cc(F)cc(F)c2)nc1C` (stereo not shown) [Q.113], the inhibition at 0.015625 ppm in experiment [1] came to 0%. Further, the inhibition at 0.03125 ppm in experiment [1] (rate 0.03125 ppm) was 0%. The inhibition at 0.0625 ppm in experiment [1] (rate 0.0625 ppm) amounted to 0%. In addition, in experiment [1] (rate 0.125 ppm), the inhibition at 0.125 ppm amounted to 0%. For the same molecule, the inhibition at 0.25 ppm in experiment [1] (rate 0.25 ppm) was 0%. Moreover, the Activity in experiment [3] (rate 0.2 ppm), in experiment [3] (rate 0.6 ppm) and in experiment [3] (rate 2 ppm) was 0% each time.
As to `CCN(C)/C=N/c1cc(Br)c(O[C@H]2CC[C@@H](C(C)C)CC2)nc1C` [Q.135], the Activity in experiment [3] (rate 0.2 ppm), in experiment [3] (rate 0.6 ppm) and in experiment [3] (rate 2 ppm) was 0% in each case. Further, the inhibition at 0.0078125 ppm in experiment [4] (rate 0.0078125 ppm) amounted to 0%. In experiment [4] (rate 0.015625 ppm), this molecule registered an inhibition at 0.015625 ppm of 0%. Moreover, in experiment [4] (rate 0.03125 ppm), the inhibition at 0.03125 ppm amounted to 0%. Besides, the inhibition at 0.0625 ppm in experiment [4] (rate 0.0625 ppm) amounted to 0%.
